Where two headings read alike, the source gives them in different places.
Key:
dormant oat VAO-48 = assay: CaCl2 in anaerobic steep water, avenanthramide accumulation during false malting of VAO-48; assay type: in vivo; settings: for All others / Avenanth A / Avenanth B / Avenanth C / Total Avenanth: four days 30° C., avenanthramide A equivalents
Experimental: (§1) In a third method, samples (10 μl) were injected into a C18 reversed-phase column (Zorbax Stable™ bond C18, 3.5 μm, 4.6 mm×150 mm) maintained at 30° C. Solvents for HPLC were A: methanol, B: water and C: 0.5M formic acid. The solvent gradient (vol. %) consisted of 45A:45B:10C, linearly increasing to 55A:35B:10C over 24 min, and linearly increasing to 70A:20B:10C over 9 min, then reaching 95A:5C over 3 min and holding for 3 min. The solvent gradient was brought back to original conditions over 3 min, allowed equilibrating for 3 min.
(§2) Individual avenanthramides were quantified by determining the peak areas at 330 nm relative to an external authentic avenanthramide A standard and expressed as avenanthramide A weight equivalents. Total avenanthramides were calculated by summing all the individual avenanthramide quantities calculated as avenanthramide A weight equivalents and expressed as parts per million (ppm) avenanthramide A equivalents on a dry weight basis.
25 g samples of the hulless, hairless, dormant oat VAO-48 was anaerobically steeped in either water or various concentrations of USP-grade CaCl2.(H2O)2 solutions at 35° C. After steeping for 18 hours and air drying in a seed dryer for about four hours, the seeds were surface sterilized as above then ‘false malted” using Petri dishes (150×50 mm) in the dark at 30° C. in a controlled temperature oven for four days. The germination rate in all cases was less than 1% after four days. After malting the seeds were removed, dried at room temperature (forced air) for four hours then brought to constant weight by drying at 37° C. for ˜40 hours and stored at −20° C. until analyzed for avenanthramide content by the third method described above (μg avenanthramide A equivalents/g dry wt=ppm avenanthramide A), and compared to un-malted material.

non-dormant oat VAO-22 = assay: CaCl2 in anaerobic steep water, avenanthramide accumulation during false malting of VAO-22; assay type: in vivo; settings: for All others / Avenanth A / Avenanth B / Avenanth C / Total Avenanth: four days 30° C., avenanthramide A equivalents
Experimental: as §1, §2
A 1,300 g sample of VAO-22 hulless, hairless, non-dormant oat breeder's seed was used (84% germination rate after four days). The seeds were then heat treated as in Example 5. A 25 g sample was used as a control representing the un-malted seeds and stored at −20° C. until analyzed. The rest of the heat treated material was anaerobically steeped at 35° C. in either 1.0% or 2.0% Ca Cl2.(H2O)2 for 18 hours and air drying in a seed dryer for about four hours. The seeds were then surface sterilized as above and ‘false malted” in the dark at 30° C. in a controlled temperature oven for four days using Petri dishes (150×50 mm). After malting the seeds were removed, dried at room temperature (forced air) for four hours then brought to constant weight by drying at 37° C. for ˜40 hours and stored at −20° C. until analyzed for avenanthramide content by HPLC using the third method described above (μg avenanthramide A equivalents/g dry wt=ppm avenanthramide A), and compared to un-malted material.

smooth muscle cells [1] = settings: about 40 ppm; rat; cited from earlier work
smooth muscle cells [2] = settings: about 40 ppm; human; cited from earlier work
[3] = tested on: colonic cancer cell lines; settings: about 20 to 50 ppm; cited from earlier work
normal cell lines = settings: about 20 to 50 ppm; cited from earlier work
heat treated oats = assay: germination of heat treated oats incubated with gibberellin; assay type: in vivo, oats (VAO-2); settings: 100 ppm gibberellin, 5 days; two-phase dry heated oats

O.O.[Ca+2].[Cl-].[Cl-] [CaCl2, CaCl2.(H2O)2]
All others (dormant oat VAO-48; 0.05% CaCl2 in steeping water): 287.3 ± 30.9 ppm | Avenanth A (dormant oat VAO-48; 0.05% CaCl2 in steeping water): 37.7 ± 5.6 ppm | Avenanth B (dormant oat VAO-48; 0.05% CaCl2 in steeping water): 122.0 ± 14.8 ppm | Avenanth C (dormant oat VAO-48; 0.05% CaCl2 in steeping water): 81.5 ± 9.4 ppm | Total Avenanth (dormant oat VAO-48; 0.05% CaCl2 in steeping water): 528.4 ± 30.9 ppm | All others (dormant oat VAO-48; 0.10% CaCl2 in steeping water): 251.4 ± 10.4 ppm | Avenanth A (dormant oat VAO-48; 0.10% CaCl2 in steeping water): 27.2 ± 11.4 ppm | Avenanth B (dormant oat VAO-48; 0.10% CaCl2 in steeping water): 113.4 ± 5.8 ppm | Avenanth C (dormant oat VAO-48; 0.10% CaCl2 in steeping water): 75.7 ± 4.6 ppm | Total Avenanth (dormant oat VAO-48; 0.10% CaCl2 in steeping water): 467.7 ± 32.1 ppm | All others (dormant oat VAO-48; 0.50% CaCl2 in steeping water): 400.1 ± 0.3 ppm | Avenanth A (dormant oat VAO-48; 0.50% CaCl2 in steeping water): 59.9 ± 1.1 ppm | Avenanth B (dormant oat VAO-48; 0.50% CaCl2 in steeping water): 155.3 ± 2.3 ppm | Avenanth C (dormant oat VAO-48; 0.50% CaCl2 in steeping water): 126.4 ± 2.8 ppm | Total Avenanth (dormant oat VAO-48; 0.50% CaCl2 in steeping water): 741.7 ± 6.5 ppm | overall increase of avenanthramide concentration over un-malted seeds (dormant oat VAO-48; 1% Ca+2): about 23.6 fold | All others (dormant oat VAO-48; 1.0% CaCl2 in steeping water): 401.1 ± 15.4 ppm | Avenanth A (dormant oat VAO-48; 1.0% CaCl2 in steeping water): 68.7 ± 3.3 ppm | Avenanth B (dormant oat VAO-48; 1.0% CaCl2 in steeping water): 149.0 ± 8.2 ppm | Avenanth C (dormant oat VAO-48; 1.0% CaCl2 in steeping water): 138.1 ± 4.0 ppm | Total Avenanth (dormant oat VAO-48; 1.0% CaCl2 in steeping water): 757.0 ± 30.9 ppm | increase of avenanthramide concentration over steeping with no added Ca+2 (dormant oat VAO-48; 1% added Ca+2): approximately 1.7 fold | avenanthramide B fold over initial value (non-dormant oat VAO-22; 1% CaCl2): 23.4 fold | avenanthramide B increase over initial value (non-dormant oat VAO-22; 1% CaCl2): 2,240% | avenanthramide C fold over initial (non-dormant oat VAO-22; 1% CaCl2): 28.4 fold | avenanthramide C increase over initial (non-dormant oat VAO-22; 1% CaCl2): 2,735% | total avenanthramide fold over initial (non-dormant oat VAO-22; 1% CaCl2): 24.1 fold | total avenanthramide levels relative to initial (non-dormant oat VAO-22; 1% CaCl2): 2,307% | All others (non-dormant oat VAO-22; 1.0% CaCl2 in steeping water): 360.1 ± 2.4 ppm | Avenanth A (non-dormant oat VAO-22; 1.0% CaCl2 in steeping water): 27.0 ± 0.22 ppm | Avenanth B (non-dormant oat VAO-22; 1.0% CaCl2 in steeping water): 79.7 ± 0.26 ppm | Avenanth C (non-dormant oat VAO-22; 1.0% CaCl2 in steeping water): 65.2 ± 0.26 ppm | Total Avenanth (non-dormant oat VAO-22; 1.0% CaCl2 in steeping water): 532.0 ± 3.16 ppm | avenanthramide B fold over initial (non-dormant oat VAO-22; 2% CaCl2): 30.3 fold | avenanthramide B increase over initial value (non-dormant oat VAO-22; 2% CaCl2): 2,930% | avenanthramide C fold over initial (non-dormant oat VAO-22; 2% CaCl2): 43.5 fold | avenanthramide C increase over initial (non-dormant oat VAO-22; 2% CaCl2): 4,252% | total avenanthramide fold over initial (non-dormant oat VAO-22; 2% CaCl2): 31.9 fold | total avenanthramide levels relative to initial (non-dormant oat VAO-22; 2% CaCl2): 3,190% | All others (non-dormant oat VAO-22; 2.0% CaCl2 in steeping water): 461.7 ± 8.8 ppm | Avenanth A (non-dormant oat VAO-22; 2.0% CaCl2 in steeping water): 46.7 ± 0.08 ppm | Avenanth B (non-dormant oat VAO-22; 2.0% CaCl2 in steeping water): 103.0 ± 0.06 ppm | Avenanth C (non-dormant oat VAO-22; 2.0% CaCl2 in steeping water): 100.1 ± 0.38 ppm | Total Avenanth (non-dormant oat VAO-22; 2.0% CaCl2 in steeping water): 711.4 ± 9.32 ppm

O=C(/C=C/c1ccc(O)c(O)c1)Nc1ccc(O)cc1C(=O)O [avenanthramide C]
nitric oxide production (smooth muscle cells [1]): inhibit | proliferation of smooth muscle cells (smooth muscle cells [1]): inhibit the proliferation | nitric oxide production (smooth muscle cells [2]): inhibit | proliferation of smooth muscle cells (smooth muscle cells [2]): inhibit the proliferation | anti-inflammatory activity [3]: anti-inflammatory | anti-proliferative activity [3]: anti-proliferative activity | effect on normal cell lines (normal cell lines): no effect

gibberellin
germination (heat treated oats): almost complete restoration of germination

Reference: US10334869B2, “Method for increasing concentration of avenanthramides in oats” (HER MAJESTY THE QUEEN IN RIGHT OF CANADA, AS REPRESENTED BY …, priority 2009, dated 2019)
